Where two headings read alike, the source gives them in different places. Values belong to the molecule of their own block, whether it stands above or below them. *1 amine or outer side, *2 acyl side, *3 side chain or, on linkers, in order; H or OH if unused. Where a SMILES comes first, the peptide text is derived from it. [ ]: non-standard residue; d: D form. X1 = N6‑isopropyl‑N6‑((1-methyl-1H-imidazol-5-yl)methyl)Lys, CC(C)N(CCCC[C@H](N[*:1])C(=O)[*:2])Cc1cncn1C; X2 = CC(C)N(CCCC[C@H](N[*:1])C(=O)[*:2])Cc1cncn1C; Phe(F5) = N[C@@H](Cc1c(F)c(F)c(F)c(F)c1F)C(=O)O; NMeA = CN[C@@H](C)C(=O)O; Inp = O=C(O)C1CCNCC1
What was measured:
CDYL chromodomain = biological target: T1, CDYL chromodomain (Homo sapiens, UniProt Q9Y232); test: isothermal titration calorimetry; format: binding
T1 construct: chromodomain residues 1-78 of NP_004815, N-terminal GST tag (pGEX4T) removed by thrombin for ITC, E. coli Rosetta2 BL21(DE3)pLysS
T1 sequence (Q9Y232 1-78 isoform Q9Y232-2): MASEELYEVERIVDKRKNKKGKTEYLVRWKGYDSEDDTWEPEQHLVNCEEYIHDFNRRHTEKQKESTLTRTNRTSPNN

[1] = biological target: T2, chromodomain of MPP8 (residues 55-116 of NP_059990) (UniProt Q99549-1 55-116); test: not stated; selectivity of UNC6261 among chromodomains (Figure S7); method not given; conditions: both partners purified
T2 construct: M-phase phosphoprotein 8 (MPP8), chromodomain, residues 55-116 of NP_059990; source: E. coli Rosetta2 BL21(DE3)pLysS, purified (HisTrap FF, Superdex 75)
T2 sequence (looked up): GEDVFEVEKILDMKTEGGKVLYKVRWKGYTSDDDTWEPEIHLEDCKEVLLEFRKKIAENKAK

[2] = biological target: T3, chromodomain of CDYL2 (residues 1-75 of NP_689555) (UniProt Q8N8U2 1-75); test: AlphaScreen or HTRF; TR-FRET competition assay for CDYL2, dose-response; 20 mM tris pH 7.5, 150 mM NaCl, 0.05% Tween 20, 2 mM DTT; 1 h equilibration; tracer not named (ref. 30); conditions: both partners purified
T3 construct: chromodomain Y-like protein 2 (CDYL2), chromodomain, residues 1-75 of NP_689555; source: E. coli Rosetta2 BL21(DE3)pLysS, purified (HisTrap FF, Superdex 75)
T3 sequence (looked up): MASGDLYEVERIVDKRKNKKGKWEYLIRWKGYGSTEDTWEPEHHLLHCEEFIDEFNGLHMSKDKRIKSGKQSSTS

- Kd (CDYL chromodomain; read-out: Kd): 139 ± 3.3 nM
Molecule: COC(=O)[C@H](CO)NC(=O)[C@H](CCCCN(Cc1cncn1C)C(C)C)NC(=O)[C@H](Cc1ccccc1)NC(=O)[C@H](C)NC(=O)[C@H](Cc1c(F)c(F)c(F)c(F)c1F)NC(=O)C1CCNCC1 [UNC6261, Methyl N ^6‐isopropyl‐N ^6‐((1‐methyl‐1H‐imidazol‐5‐yl)methyl)‐N ^2‐((S)‐3‐(perfluorophenyl)‐2‐(piperidine‐4‐carboxamido)propanoyl)‐L‐alanyl‐L‐phenylalanyl‐L‐lysyl‐L‐serinate] (H-[Inp][Phe(F5)]AF[X2]S-OMe)

- Kd (CDYL chromodomain; read-out: no measurable binding): > 50000 nM
Molecule: COC(=O)[C@H](CO)NC(=O)[C@H](CCCCN(Cc1cncn1C)C(C)C)NC(=O)[C@H](Cc1ccccc1)NC(=O)[C@H](C)N(C)C(=O)[C@H](Cc1c(F)c(F)c(F)c(F)c1F)NC(=O)C1CCNCC1 [UNC7394, Methyl N ^6‐isopropyl‐N ^6‐((1‐methyl‐1H‐imidazol‐5‐yl)methyl)‐N ^2‐N‐methyl‐N‐((S)‐3‐(perfluorophenyl)‐2‐(piperidine‐4‐carboxamido)propanoyl)‐L‐alanyl‐L‐phenylalanyl‐L‐lysyl‐L‐serinate] (H-[Inp][Phe(F5)][NMeA]F[X2]S-OMe)

- fold selectivity for CDYL over MPP8 [1]: 13 fold
- IC50 [2]: 81 ± 16 nM
B1: UNC6261 (peptide)
peptide: {piperidine‑4‑carbonyl}-[Phe(F5)]AF[X1]S-OMe
notes: peptidomimetic pentapeptide; F1 stands for pentafluorophenylalanine, K4 for the dialkylated lysine mimetic; also called CDYL antagonist; source: synthetic, purified by reverse phase flash chromatography (TFA salt)

From article PMC8981457, “Cdyl Deficiency Brakes Neuronal Excitability and Nociception through Promoting Kcnb1 Transcription in Peripheral Sensory Neurons” (Advanced Science, 2022)
